From patent US20230077362A1 (CORTEVA AGRISCIENCE LLC, priority 2019, published 2023) come the findings set out here.

The subject of assay [1] is Cabbage Looper (Trichoplusia ni) ("CL"), second instar larvae. Put plainly: Bioassay on cabbage looper (CL), 128-well diet tray assay. The class given is in vivo. As to conditions: for pest or weed control at 50 µg/cm2: Trichoplusia ni, read-out: CL rating; for CL rating: Table ABC, species CL, C = not tested, D = no activity noticed. The method, boiled down:
(§1)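 Covered trays were held at 25° C. under a 14:10 light-dark cycle for five to seven days. Percent mortality was then scored in each well, and activity across eight wells was averaged.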

For assay [2], the system named is Beet Armyworm (Spodoptera exigua) ("BAW"), second instar larvae. Nature of the assay: Bioassay on beet armyworm (BAW), 128-well diet tray assay. The format is in vivo. As to conditions: for pest or weed control at 50 µg/cm2: Spodoptera exigua, read-out: BAW rating; for BAW rating: Table ABC, species BAW, C = not tested, D = no activity noticed. An outline of the steps: as §1

With `Cc1cccc(N2C(=O)CS/C2=N\C(=O)Nc2ccc(-n3cnc(-c4ccc(OC(F)(F)F)cc4)n3)cc2F)c1COCC(F)(F)F` [Compound J703, (Z)-1-(2-Fluoro-4-(3-(4-(trifluoromethoxy)phenyl)-1H-1,2,4-triazol-1-yl)phenyl)-3-(3-(3-methyl-2-((2,2,2-trifluoroethoxy)methyl)phenyl)-4-oxothiazolidin-2-ylidene)urea], the pest or weed control at 50 µg/cm2 in assay [1] and in assay [2] was 50 to 100% throughout.
For the molecule `Cc1cccc(N2C(=O)CS/C2=N\C(=O)Nc2ccc(-n3cnc(-c4ccc(C(F)(F)F)cc4)n3)cc2F)c1COCC(F)(F)F` [Compound J704, (Z)-1-(2-Fluoro-4-(3-(4-(trifluoromethyl)phenyl)-1H-1,2,4-triazol-1-yl)phenyl)-3-(3-(3-methyl-2-((2,2,2-trifluoroethoxy)methyl)phenyl)-4-oxothiazolidin-2-ylidene)urea], the pest or weed control at 50 µg/cm2 in assay [1] and in assay [2] was 50 to 100% in each case.
In the case of `Cc1ccc(COCC(F)(F)F)c(N2C(=O)CS/C2=N\C(=O)Nc2ccc(-c3ncn(-c4cccc(OC(F)(F)F)c4)n3)cc2F)c1` [Compound J705], the CL rating entry in assay [1] is reported as “A (50-100)”. The BAW rating result in assay [2] is “A (50-100)”.
Consider `Cc1cccc(N2C(=O)CS/C2=N\C(=O)Nc2ccc(-c3ncn(-c4cccc(OC(F)(F)F)c4)n3)cc2F)c1COCC(F)(F)F` [Compound J706], for which the CL rating result in assay [1] is given as “A (50-100)”. Further, the BAW rating entry in assay [2] is “A (50-100)”.
Regarding `Cc1ccc(COCC(F)(F)F)c(N2C(=O)CS/C2=N\C(=O)Nc2ccc(-c3ncn(-c4cccc(C(F)(F)F)c4)n3)cc2F)c1` [Compound J710], the CL rating entry in assay [1] was “A (50-100)”. Also, the BAW rating result in assay [2] is “A (50-100)”.
Turning to `CCOCc1ccc(C)cc1N1C(=O)CS/C1=N\C(=O)Nc1ccc(-c2ncn(-c3cccc(OC(F)(F)F)c3)n2)cc1F` [Compound J711], the CL rating entry in assay [1] is “A (50-100)”. Further, the BAW rating entry in assay [2] was “A (50-100)”.
For `Cc1ccc(COCC(F)(F)F)c(N2C(=O)CS/C2=N\C(=O)Nc2ccc(-c3ncn(-c4cccc(OC(F)(F)F)c4)n3)cc2C)c1` [Compound J722], the CL rating entry in assay [1] is given as “A (50-100)”. Besides, the BAW rating entry in assay [2] is “A (50-100)”.
Consider `CCOCc1ccc(C)cc1N1C(=O)CS/C1=N\C(=O)Nc1ccc(-c2ncn(-c3cccc(C(F)(F)F)c3)n2)cc1F` [Compound J723], for which, in assay [1], the CL rating entry was “A (50-100)”. In addition, in assay [2], the BAW rating entry is recorded as “A (50-100)”.
On to `CCOCc1ccc(C)cc1N1C(=O)CS/C1=N\C(=O)Nc1ccc(-c2ncn(-c3cccc(OC(F)(F)F)c3)n2)cc1C` [Compound J726], for which the CL rating result in assay [1] is “A (50-100)”. In addition, in assay [2], the BAW rating result was “A (50-100)”.
As for `Cc1ccc(COCC(F)(F)F)c(N2C(=O)CS/C2=N\C(=O)Nc2ccc(-c3ncn(-c4cccc(C(F)(F)F)c4)n3)cc2C)c1` [Compound J727], in assay [1], the CL rating result is listed as “A (50-100)”. Further, the BAW rating entry in assay [2] is reported as “A (50-100)”.
As for `Cc1ccc(C(C)C)c(N2C(=O)CS/C2=N\C(=O)Nc2ccc(-n3cnc(-c4ccc(OC(F)(F)F)cc4)n3)cc2Cl)c1` [Compound J728, (Z)-1-(2-Chloro-4-(3-(4-(trifluoromethoxy)phenyl)-1H-1,2,4-triazol-1-yl)phenyl)-3-(3-(2-isopropyl-5-methylphenyl)-4-oxothiazolidin-2-ylidene)urea], the pest or weed control at 50 µg/cm2 in assay [1] and in assay [2] was 50 to 100% in each case.
With `COC(c1ccc(C)cc1N1C(=O)CS/C1=N\C(=O)Nc1ccc(-n2cnc(-c3ccc(OC(F)(F)F)cc3)n2)cc1Cl)C(F)(F)F` (stereo not shown) [Compound J729, (Z)-1-(2-Chloro-4-(3-(4-(trifluoromethoxy)phenyl)-1H-1,2,4-triazol-1-yl)phenyl)-3-(3-(5-methyl-2-(2,2,2-trifluoro-1-methoxyethyl)phenyl)-4-oxothiazolidin-2-ylidene)urea], the pest or weed control at 50 µg/cm2 in assay [1] and in assay [2] was 50 to 100% throughout.
`COCc1ccc(C)cc1N1C(=O)CS/C1=N\C(=O)Nc1ccc(-n2cnc(-c3ccc(OC(F)(F)F)cc3)n2)cc1Cl` [Compound J730, (Z)-1-(2-Chloro-4-(3-(4-(trifluoromethoxy)phenyl)-1H-1,2,4-triazol-1-yl)phenyl)-3-(3-(2-(methoxymethyl)-5-methylphenyl)-4-oxothiazolidin-2-ylidene)urea]: the pest or weed control at 50 µg/cm2 in assay [1] and in assay [2] was 50 to 100% in each case.
With `O=C(/N=C1\SCC(=O)N1c1ccccc1COCC(F)(F)F)Nc1ccc(-n2cnc(-c3ccc(OC(F)(F)F)cc3)n2)cc1Cl` [Compound J732, (Z)-1-(2-Chloro-4-(3-(4-(trifluoromethoxy)phenyl)-1H-1,2,4-triazol-1-yl)phenyl)-3-(4-oxo-3-(2-((2,2,2-trifluoroethoxy)methyl)phenyl)thiazolidin-2-ylidene)urea], the pest or weed control at 50 µg/cm2 in assay [1] and in assay [2] was 50 to 100% each time.
On to `Cc1cc(COCC(F)(F)F)c(N2C(=O)CS/C2=N\C(=O)Nc2ccc(-n3cnc(-c4ccc(OC(F)(F)F)cc4)n3)cc2Cl)cc1C` [Compound J733, (Z)-1-(2-Chloro-4-(3-(4-(trifluoromethoxy)phenyl)-1H-1,2,4-triazol-1-yl)phenyl)-3-(3-(4,5-dimethyl-2-((2,2,2-trifluoroethoxy)methyl)phenyl)-4-oxothiazolidin-2-ylidene)urea], for which the pest or weed control at 50 µg/cm2 in assay [1] and in assay [2] was 50 to 100% each time.
Turning to `Cc1ccc(OCCC(F)(F)F)c(N2C(=O)CS/C2=N\C(=O)Nc2ccc(-n3cnc(-c4ccc(OC(F)(F)F)cc4)n3)cc2Cl)c1` [Compound J737, (Z)-1-(2-Chloro-4-(3-(4-(trifluoromethoxy)phenyl)-1H-1,2,4-triazol-1-yl)phenyl)-3-(3-(5-methyl-2-(3,3,3-trifluoropropoxy)phenyl)-4-oxothiazolidin-2-ylidene)urea], the pest or weed control at 50 µg/cm2 in assay [1] and in assay [2] was 50 to 100% each time.
As for `Cc1cc(COCC(F)(F)F)c(N2C(=O)CS/C2=N\C(=O)Nc2ccc(-c3ncn(-c4cccc(OC(F)(F)F)c4)n3)cc2F)cc1C` [Compound J738], the CL rating entry in assay [1] is given as “A (50-100)”. Also, the BAW rating entry in assay [2] is listed as “A (50-100)”.
For `Cc1ccc(-n2cnc(-c3ccc(NC(=O)/N=C4\SCC(=O)N4c4cc(C)ccc4COCC(F)(F)F)c(F)c3)n2)cc1` [Compound J752], the CL rating result in assay [1] is “A (50-100)”. The BAW rating result in assay [2] is given as “A (50-100)”.
Regarding `CCOCc1ccc(C)cc1N1C(=O)CS/C1=N\C(=O)Nc1ccc(-c2ncn(-c3ccc(C)cc3)n2)cc1F` [Compound J753, (Z)-1-(3-(2-(Ethoxymethyl)-5-methylphenyl)-4-oxothiazolidin-2-ylidene)-3-(2-fluoro-4-(1-(p-tolyl)-1H-1,2,4-triazol-3-yl)phenyl)urea], the pest or weed control at 50 µg/cm2 in assay [1] and in assay [2] was 50 to 100% throughout.
For `COc1ccc(-n2cnc(-c3ccc(NC(=O)/N=C4\SCC(=O)N4c4cc(C)ccc4COCC(F)(F)F)c(F)c3)n2)cc1` [Compound J754, (Z)-1-(2-Fluoro-4-(1-(4-methoxyphenyl)-1H-1,2,4-triazol-3-yl)phenyl)-3-(3-(5-methyl-2-((2,2,2-trifluoroethoxy)methyl)phenyl)-4-oxothiazolidin-2-ylidene)urea], the pest or weed control at 50 µg/cm2 in assay [1] and in assay [2] was 50 to 100% throughout.
